Calls of active or inactive are those of the source. The calls are words filed in the database; no cut-off is given here.
Columns and labels:
HT-22 [1] = assay: Neuroprotective activity against glutamate-induced cell death in mouse HT22 cells assessed as cell viability at 12.5 uM pretreated for 2 hrs followed by glutamate-challenge and measured after 20 hrs by MTT assay (reference value: 23 +/- 3.57%); type: functional; settings: for viability at 12.5 µM: read-out: Activity
HT-22 [2] = assay: Cytotoxicity against mouse HT22 cells assessed as effect on cell viability at >25 uM after 2 hrs by MTT assay; type: cell-based; settings: ht-22, 2 h
HT-22 [3] = assay: Neuroprotective activity against glutamate-induced cell death in mouse HT22 cells assessed as increase in cell viability at 1.6 uM pretreated for 2 hrs followed by glutamate-challenge and measured after 20 hrs by MTT assay (reference value: 23 +/- 3.57%); type: functional, cell-based

Row | Compound | viability at 12.5 µM (HT-22 [1]) [%] | Activity (HT-22 [2]) | Activity (HT-22 [3]) | Activity (HT-22 [1])
1 | Cc1c(C)c2c(c(C)c1O)CCC(C)(C(=O)O)O2 (stereo not drawn) [TROLOX] | 52 |  |  | 
2 | COc1cc([C@H](O)[C@H](COC(=O)/C=C/c2ccc(O)cc2)Oc2ccc(/C=C/COC(=O)/C=C\c3ccc(O)cc3)cc2OC)ccc1O |  | Toxic | Active | Active
3 | COc1cc([C@@H](O)[C@H](COC(=O)/C=C\c2ccc(O)cc2)Oc2ccc(/C=C/COC(=O)/C=C/c3ccc(O)cc3)cc2OC)ccc1O |  | Toxic | Active | Active
4 | COc1cc(C[C@@H](COC(=O)/C=C\c2ccc(O)cc2)[C@H](COC(=O)/C=C/c2ccc(O)cc2)Cc2ccc(O)c(OC)c2)ccc1O | 73 | Toxic | Active | 
5 | COc1cc([C@H](O)[C@H](COC(=O)/C=C/c2ccc(O)cc2)Oc2ccc(/C=C/COC(=O)/C=C/c3ccc(O)cc3)cc2OC)ccc1O |  | Toxic | Active | Active
6 | COc1cc(C[C@@H](COC(=O)/C=C/c2ccc(O)cc2)[C@H](COC(=O)/C=C/c2ccc(O)cc2)Cc2ccc(O)c(OC)c2)ccc1O | 63 | Toxic | Active | 
7 | COc1cc([C@@H](O)[C@H](COC(=O)/C=C/c2ccc(O)cc2)Oc2ccc(/C=C/COC(=O)/C=C\c3ccc(O)cc3)cc2OC)ccc1O |  | Toxic | Active | Active
8 | COc1cc([C@@H](O)[C@H](COC(=O)/C=C/c2ccc(O)cc2)Oc2ccc(/C=C/COC(=O)/C=C/c3ccc(O)cc3)cc2OC)ccc1O |  | Toxic | Active | Active
9 | COc1cc([C@H](O)[C@H](COC(=O)/C=C\c2ccc(O)cc2)Oc2ccc(/C=C/COC(=O)/C=C/c3ccc(O)cc3)cc2OC)ccc1O |  | Toxic | Active | Active
10 | COc1cc(C[C@@H](COC(=O)/C=C\c2ccc(O)cc2)[C@H](COC(=O)/C=C\c2ccc(O)cc2)Cc2ccc(O)c(OC)c2)ccc1O | 74 | Toxic | Active | 

From ChEMBL document CHEMBL4196146, “Targeted Isolation of Neuroprotective Dicoumaroyl Neolignans and Lignans from Sageretia theezans Using in Silico Molecular Network Annotation Propagation-Based Dereplication” (J Nat Prod, 2018)
